The values below come from patent US8476229B2, “Blood sugar-modulating polypeptides” (China Medical University, priority 2008, dated 2013).

The subject of one assay is normal mice (BALB/c). Briefly: Glucose challenge after oral administration of polypeptide, normal mice; blood sugar value by blood sugar meter. Format: in vivo. The settings on record: BALB/c fasted 18 hrs; 50 mg/kg-body weight oral; 4 g/kg glucose i.p. after 15 minutes; blood sugar after 180 minutes; relative to water control. From the text: The following materials were adopted in the examples: • (A) Experimental subjects: two strains of mice, BALB/c (the metabolism of blood sugar is normal) and ob/ob (spontaneous diabetes type 2), were used to conduct experiments, and they were provided by the National Laboratory Animal Center, Taiwan. • (B) Polypeptides: polypeptides with amino acid sequences shown in Table 1 were produced by the solid phase synthesis method.
Five normal mice (BALB/c) in each of the nine groups fasted for 18 hrs, and then, respectively, a solution (20 μL) of 50 mg/kg-body weight of the polypeptide of SEQ ID NO: 1, a solution (20 μL) of 50 mg/kg-body weight of the polypeptide of SEQ ID NO: 2, a solution (20 μL) of 50 mg/kg-body weight of the polypeptide of SEQ ID NO: 3, a solution (20 μL) of 50 mg/kg-body weight of the polypeptide of SEQ ID NO: 4, a solution (20 μL) of 50 mg/kg-body weight of the polypeptide of SEQ ID NO: 5, a solution (20 μL) of 50 mg/kg-body weight of the polypeptide of SEQ ID NO: 6, a solution (20 μL) of 50 mg/kg-body weight of the polypeptide of SEQ ID NO: 7, a solution (20 μL) of 50 mg/kg-body weight of the polypeptide of SEQ ID NO: 8, or a solution (20 μL) of 50 mg/kg-body weight of the polypeptide of SEQ ID NO:9, was given to each mouse of each group of the experimental group by oral administration, while in the control group (five mice), each mouse was given water (20 μL). After 15 minutes, a solution of 4 g/kg-body weight of glucose was injected into the peritoneal cavity of each mouse to rapidly raise the blood sugar value of each mouse. After 180 minutes, the blood of each mouse was extracted from its tails, and the blood sugar value was determined by a blood sugar meter (Accu-Check Advantage, Roche, Germany). The blood sugar values of the mice of the experimental group were compared with those of the control group and were analyzed to obtain the relative inhibition rate of each of the polypeptides toward the blood sugar values, as shown in Table 4.
Five normal mice (BALB/c) in each of two groups fasted for 18 hrs, and then, respectively, a solution (20 μL) of 50 mg/kg-body weight of the polypeptide of SEQ ID NO: 10, or a solution (20 μL) of 50 mg/kg-body weight of the polypeptide of SEQ ID NO:11, was given to each mouse of each group of the experimental group by oral administration, while in the control group (five mice), each mouse was given water (20 μL). After 15 minutes, a solution of 4 g/kg-body weight of glucose was injected into the peritoneal cavity of each mouse to rapidly raise the blood sugar value of each mouse. After 180 minutes, the blood of each mouse was extracted from its tails, and the blood sugar value was determined by a blood sugar meter (Accu-Check Advantage, Roche, Germany). The blood sugar values of the mice of the experimental group were compared with those of the control group and were analyzed to obtain a relative inhibition rate of the polypeptides of SEQ ID NO:10 and SEQ ID NO:11 toward the blood sugar values, as shown in Table 5.
On to “RVWVWINKDEIVYQVPTIG (MEDICAGO TRUNCATULA) [SEQ ID NO: 3]”, for which the “Inhibition Rate (%) toward the blood sugar values” was 52.5 ± 14.9%.

For the sequence “RVRVWVTERGIVAR (MOMORDICA …) [SEQ ID NO: 10]”, the “Inhibition Rate (%) toward the blood sugar values” was 34.5 ± 8.8 %.

With “RVRVWVDSYGIVSMVPKIG (VITIS VINIFERA) [SEQ ID NO: 4]”, the “Inhibition Rate (%) toward the blood sugar values” was 67.8 ± 9.1%.

Regarding “RVRVWVNKKGKVIRVPRIG (CITRUS PARADISI) [SEQ ID NO: 6]”, the “Inhibition Rate (%) toward the blood sugar values” is listed as 26.2 ± 3.1%.

As for “RVRVWVDENGIVTRVPVIG (SAMBUCUS NIGRA) [SEQ ID NO: 7]”, the “Inhibition Rate (%) toward the blood sugar values” was found to be 56.3 ± 2.6%.

Consider “RVRIWVNKRGLVVSPPRIG (CUCURBITA MAXIMA) [SEQ ID NO: 1]”, for which the “Inhibition Rate (%) toward the blood sugar values” was 15.7 ± 6.9%.

Take “RVRVWVDENGIVISVPTIG (VITIS VINIFERA) [SEQ ID NO: 5]”: the “Inhibition Rate (%) toward the blood sugar values” amounted to 30.2 ± 31.3%.

“RVWVWVNSKGIVIRTPIIT (ZINNIA ELEGANS) [SEQ ID NO: 2]”: the “Inhibition Rate (%) toward the blood sugar values” is given as 24.5 ± 2.3%.

Consider “RVRVWVDEIRIVVRNPTAG (ARABIDOPSIS THALIANA) [SEQ ID NO: 8]”, for which the “Inhibition Rate (%) toward the blood sugar values” stood at 25.5 ± 8.6%.

As to “DENRVRIWVDTVAKTPTIG (ORYZA SATIVA) [SEQ ID NO: 9]”, the “Inhibition Rate (%) toward the blood sugar values” was found to be 60.2 ± 14.1%.

The assay is the same for the next values; noted with them: BALB/c fasted 18 hrs; 50 mg/kg-body weight oral; 4 g/kg glucose i.p. after 15 minutes; blood sugar after 180 minutes; relative to water control; 50 mg/kg.
As for “RVRVWVTERGIVARPPTIG (MOMORDICA …) [SEQ ID NO: 11]”, the “Inhibition Rate (%) toward the blood sugar values” turned out to be 51.9 ± 19.4 %.

Staying with this assay, now noted: BALB/c fasted 18 hrs; 50 mg/kg-body weight oral; 4 g/kg glucose i.p. after 15 minutes; blood sugar after 180 minutes; relative to water control; listed as SEQ ID NO:11, 50 mg/kg.
With “RVRVWVTERGIVARPPTIG (MOMORDICA …) [SEQ ID NO: 11]”, the “Inhibition Rate (%) toward the blood sugar values” is given as “about 50%”.

Staying with this assay, now noted: BALB/c; 50 mg/kg-body weight oral; comment on Tables 4 and 5.
For the sequence “RVRVWVTERGIVAR (MOMORDICA …) [SEQ ID NO: 10]”, the “effect of reducing the blood sugar values (in words)” value is on record as “can reduce the blood sugar values of the normal mice efficiently”.

For “RVRVWVDSYGIVSMVPKIG (VITIS VINIFERA) [SEQ ID NO: 4]”, the “effect of reducing the blood sugar values (in words)” value was “better effect of reducing the blood sugar values”.

Regarding “RVRVWVDENGIVTRVPVIG (SAMBUCUS NIGRA) [SEQ ID NO: 7]”, the “effect of reducing the blood sugar values (in words)” value was “better effect of reducing the blood sugar values”.

Take “RVRVWVTERGIVARPPTIG (MOMORDICA …) [SEQ ID NO: 11]”: the “effect of reducing the blood sugar values (in words)” value is given as “can reduce the blood sugar values of the normal mice efficiently”.

As for “DENRVRIWVDTVAKTPTIG (ORYZA SATIVA) [SEQ ID NO: 9]”, the “effect of reducing the blood sugar values (in words)” value is recorded as “better effect of reducing the blood sugar values”.
